The source of these data is paper PMC3527734, “Peripheral injections of melanin-concentrating hormone receptor 1 antagonist S38151 decrease food intake and body weight in rodent obesity models” (Frontiers in Endocrinology, 2012).

Read-outs that look alike come from different tables or passages of the source. Where a SMILES comes first, the peptide text is derived from it.

One series deals with MCH1. The conditions noted are these: ref Audinot et al., 2009, cited from earlier work; for Kb: full antagonist, CHO cells over-expressing MCH1. The source says: S38151 was synthesized during a process that was attempting to find peptides or pseudopeptides with affinity at MCH1 receptor that also had greater stability in biological media. This pseudopeptide is derived from another, very similar agonist, pGua (MCH7-17) (Audinot et al., [2001a], [2009]). […] This activity was specific to MCH1, since it ...

Series [1] in a line: stability in mouse plasma. Format: in vitro ADME. The conditions noted are these: LC-MS/MS, representative of three experiments, read-out: % S38151 remaining. The protocol:
First, S38151 was incubated for 16 h at 4°C and 37°C in mouse plasma or in TRIS buffer (pH 7.4). Next, plasma proteins were precipitated with two volumes of acetonitrile. After centrifugation and dilution with a water/acetonitrile mixture (50/50 v/v), the supernatant was injected onto a triple quadripole mass spectrometer (Ultima, Micromass WATERS Corporation, Milford, USA). The liquid chromatographic system consisted of an Agilent 1100 analytic pump (Agilent, Santa Clara, USA) equipped with an Alpha Mos CTC autosampler (Alpha Mos, Toulouse, France). Mass detection was performed using the m/z transition 743.5 > 163, in positive electrospray. A second stability study was performed at a lower concentration (1 μM) and for 4 h, with the following sampling times: 0, 15, 45, 90, and 240 min. At each sampling time, 50 μL of plasma were precipitated with two volumes of acetonitrile, and after centrifugation were directly injected onto the LC-MS/MS system. The same treatment was used for the buffer samples.
Figure 2 Studies regarding the stability of S38151. A solution of S38151 (40 μM) was incubated with either Tris buffer, pH 7.4 (hatched bars), or mouse plasma samples (dark bars) for 16 h at 4°C or 37°C. The samples were analyzed using liquid chromatography coupled to mass spectrometry. Experiments were repeated three times. The chart presented is representative of the experimental results. […]

The subject of a further series is DIO mice. Briefly: daily i.p. S38151 in diet-induced obese mice. Format: in vivo, mouse. The protocol:
In these studies, 13-week-old female C57BL/6J, ob/ob, and MCH1-KO mice were used. The mice were maintained on a 12-h light/dark cycle (lights on at 07:30 and off at 19:30) at 22 ± 3°C, and supplied with food pellets (6 mm diameter A03, UAR Laboratory chow, Epinay Villemuisson France) and tap water ad libitum. To induce obesity in C57BL/6J (creating diet-induced obese, or DIO, mice), mice were fed a high-fat diet (60 kcal% fat, 20 kcal% protein, 20 kcal% carbohydrate, ref D12492 from Research Diets, New Brunswick, NJ08901, USA) for 8 weeks starting at 4 weeks of age. In these experiments, DIO mice, ob/ob mice, and MCH^−/−1 mice were individually housed in a modular chamber that was placed on an activity platform to concurrently measure the food intake, water intake, and activity of the mice (ADDENFI, Les Cordeliers, Paris, France). For at least 2 weeks before experimentation, mice were habituated to a diet of 6 mm diameter food pellets of the following composition: 67.5% food flour, 26.5% sucrose, 5% gum tragacanth, 1.25% magnesium stearate (A03 UAR, Orge, France), and to i.p. injection. After this habituation period, food intake, drink intake, and body weight were measured for 3 consecutive days. The mice were randomized into three groups based on their food and water intake over the three preceding 24-h periods, and on their body weight. […]
Figure 9 The effects of repeated daily S38151 injection on food and water intake, body weight, and motility in diet-induced obese (DIO) mice. […] Results are expressed as mean ± SEM (n = 8 mice per group).

For another series, the system named is MCH1-KO mice. The series is described as follows: daily i.p. S38151 in MCH1-KO mice. Type of series: in vivo, mouse. As for the experimental part:
In these studies, 13-week-old female C57BL/6J, ob/ob, and MCH1-KO mice were used. The mice were maintained on a 12-h light/dark cycle (lights on at 07:30 and off at 19:30) at 22 ± 3°C, and supplied with food pellets (6 mm diameter A03, UAR Laboratory chow, Epinay Villemuisson France) and tap water ad libitum. To induce obesity in C57BL/6J (creating diet-induced obese, or DIO, mice), mice were fed a high-fat diet (60 kcal% fat, 20 kcal% protein, 20 kcal% carbohydrate, ref D12492 from Research Diets, New Brunswick, NJ08901, USA) for 8 weeks starting at 4 weeks of age. In these experiments, DIO mice, ob/ob mice, and MCH^−/−1 mice were individually housed in a modular chamber that was placed on an activity platform to concurrently measure the food intake, water intake, and activity of the mice (ADDENFI, Les Cordeliers, Paris, France). For at least 2 weeks before experimentation, mice were habituated to a diet of 6 mm diameter food pellets of the following composition: 67.5% food flour, 26.5% sucrose, 5% gum tragacanth, 1.25% magnesium stearate (A03 UAR, Orge, France), and to i.p. injection. After this habituation period, food intake, drink intake, and body weight were measured for 3 consecutive days. The mice were randomized into three groups based on their food and water intake over the three preceding 24-h periods, and on their body weight. Next, the quantity of food eaten over each 24-h period during the 5 days of i.p. treatment with S38151 [10 and 30 mg/kg/day (7 and 20 μmol/kg/day)] or vehicle was determined and corrected for spillage.
Figure 10 The effects of repeated daily S38151 injection on food and water intake, body weight, and motility in MCHR1-KO mice. MCH1-KO mice were administered S38151 (10 and 30 mg/kg, i.p.) or vehicle (normal saline i.p.) for 5 consecutive days. Results are expressed as mean ± SEM (n = 8 mice per group).

Where [2] appears, read: S38151 30 mg/kg i.p. daily for 16 days, data not shown.
Setting [3] is: S38151 10 and 30 mg/kg i.p. daily for 5 days, significant from day 2 only at 30 mg/kg, n = 8.
The mark [4] stands for this setting: S38151 10 and 30 mg/kg i.p. daily for 5 days, n = 8.

With `CSCC[C@@H]1NC(=O)[C@@H](NC(=O)c2ccc(NC(=N)N)cc2)CSSC[C@@H](C(=O)N[C@@H](Cc2c[nH]c3ccccc23)C(=O)O)NC(=O)[C@@H]2CCCN2C(=O)[C@H](CCCNC(=N)N)NC(=O)[C@H](Cc2ccc(O)cc2)NC(=O)[C@H](C(C)C)NC(=O)[C@H](CCCNC(=N)N)NC(=O)[C@H](CC(C)C)NC1=O` [S38151, p-guanidinobenzoyl-(Des-Gly10)-MCH (7–17)] (HELM PEPTIDE1{[N=C(N)Nc1ccc(C(=O)[*:2])cc1].C.M.L.R.V.Y.R.P.C.W}$PEPTIDE1,PEPTIDE1,2:R3-10:R3$$$V2.0; C-terminus assumed), the Ki at MCH1 ([125I]-S36057 binding, Chinese hamster ovary cells over-expressing MCH1) was 80 nM. Moreover, the Kb with MCH1 (read-out: KB, GTPγS binding assay) was 4.3 nM; in the series with MCH1 (read-out: KB, calcium flux assay), 210 nM. Besides, the share remaining at 16 h, 40 μM stood at 59% in series [1] (4°C) and 1.5% in series [1] (37°C). Further, the body weight gain entry is “significant reduction” in the series on DIO mice (setting [2]); “reduction” with DIO mice (S38151 10 and 30 mg/kg i.p. daily for 5 days, significant at day 3 and day 1, respectively). The glycemia and insulinemia result in the series with DIO mice (setting [2]) is “reduced”; in the series with DIO mice (S38151 30 mg/kg i.p., day 6, data not shown), “significant reductions”. The “triglycerides, free fatty acids, and fat mass” value with DIO mice (setting [2]) is “significant reduction”. Also, the results for the drink intake entry in the series on DIO mice (setting [3]) and in the series with MCH1-KO mice (setting [4]) were “dose-dependent inhibition” and “did not induce any significant effects”, respectively. In addition, the food intake result in the series with DIO mice (setting [3]) is reported as “dose-dependent inhibition”; in the series on MCH1-KO mice (setting [4]), “did not induce any significant effects”. Besides, the motility entry in the series with DIO mice (S38151 10 and 30 mg/kg i.p., day 3 to day 5) is on record as “significant reduction”; in the series on MCH1-KO mice (S38151 30 mg/kg (20 μmol/kg/day) i.p. daily for 5 days) it was “significant reduction”. In the series with MCH1-KO mice (setting [4]), the body weight result was “did not induce any significant effects”.
